From ChEMBL document CHEMBL1201862, “PubChem BioAssay data set” (2004)
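In this assay, cells in 96-well plates receive the compound at five concentrations for 48 hours. Endpoints are linearly interpolated between the surrounding concentrations. GI50 is the concentration that inhibits growth by half.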 Calls of active or inactive are those of the source. Cut-off read from the data, not from the text of the source: active = GI50 up to about 1.1 µM and inactive = higher.

Assays:
Assay in all cases: NCI-60 cell line screen, 48 h
OVCAR-5 = tested on: OVCAR-5
T47D = tested on: T47D
786-0 = tested on: 786-0
MDA-N = tested on: MDA-N
TK-10 = tested on: TK-10
EKVX = tested on: EKVX
SNB-19 = tested on: SNB-19
HCT-15 = tested on: HCT-15
U-251 = tested on: U-251
HT-29 = tested on: HT-29
HOP-92 = tested on: HOP-92
IGROV-1 = tested on: IGROV-1
HCT-116 = tested on: HCT-116
HCC 2998 = tested on: HCC 2998
A549 = tested on: A549
SF-268 = tested on: SF-268
NCI-H226 = tested on: NCI-H226
MDA-MB-435 = tested on: MDA-MB-435
MCF7 = tested on: MCF7
SK-MEL-2 = tested on: SK-MEL-2
K562 = tested on: K562
M14 = tested on: M14
MDA-MB-231 = tested on: MDA-MB-231
COLO 205 = tested on: COLO 205
HOP-62 = tested on: HOP-62
KM12 = tested on: KM12
UACC-62 = tested on: UACC-62
ACHN = tested on: ACHN
CCRF-CEM = tested on: CCRF-CEM
Hs-578T = tested on: Hs-578T
RXF 393 = tested on: RXF 393
SF-539 = tested on: SF-539
SK-MEL-28 = tested on: SK-MEL-28
BT-549 = tested on: BT-549
RPMI-8226 = tested on: RPMI-8226
LOX IMVI = tested on: LOX IMVI
PC-3 = tested on: PC-3
SK-OV-3 = tested on: SK-OV-3
MOLT-4 = tested on: MOLT-4
HL-60 = tested on: HL-60
SNB-75 = tested on: SNB-75
CAKI-1 = tested on: CAKI-1
NCI-H460 = tested on: NCI-H460
SN12C = tested on: SN12C
SF-295 = tested on: SF-295
SW-620 = tested on: SW-620
UACC-257 = tested on: UACC-257
OVCAR-4 = tested on: OVCAR-4
SK-MEL-5 = tested on: SK-MEL-5
SR = tested on: SR
UO-31 = tested on: UO-31
DU-145 = tested on: DU-145
OVCAR-8 = tested on: OVCAR-8
NCI-H522 = tested on: NCI-H522
A498 = tested on: A498
NCI/ADR-RES = tested on: NCI/ADR-RES
Malme-3M = tested on: Malme-3M
NCI-H23 = tested on: NCI-H23
OVCAR-3 = tested on: OVCAR-3

SMILES: Cc1nc(-c2cc3cc([N+](=O)[O-])ccc3oc2=O)cs1
- GI50 (OVCAR-5): > 100 µM (inactive)
- GI50 (T47D): > 100 µM (inactive)
- GI50 (786-0): > 100 µM (inactive)
- GI50 (MDA-N): > 100 µM (inactive)
- GI50 (TK-10): > 100 µM (inactive)
- GI50 (EKVX): > 100 µM (inactive)
- GI50 (SNB-19): > 100 µM (inactive)
- GI50 (HCT-15): > 100 µM
- GI50 (U-251): > 100 µM (inactive)
- GI50 (HT-29): > 100 µM (inactive)
- GI50 (HOP-92): 67.3 µM (inactive)
- GI50 (IGROV-1): > 100 µM (inactive)
- GI50 (HCT-116): > 100 µM (inactive)
- GI50 (HCC 2998): > 100 µM (inactive)
- GI50 (A549): > 100 µM (inactive)
- GI50 (SF-268): > 100 µM (inactive)
- GI50 (NCI-H226): > 100 µM (inactive)
- GI50 (MDA-MB-435): > 100 µM (inactive)
- GI50 (MCF7): > 100 µM (inactive)
- GI50 (SK-MEL-2): > 100 µM (inactive)
- GI50 (K562): 71.8 µM (inactive)
- GI50 (M14): > 100 µM (inactive)
- GI50 (MDA-MB-231): 80.7 µM (inactive)
- GI50 (COLO 205): > 100 µM (inactive)
- GI50 (HOP-62): > 100 µM (inactive)
- GI50 (KM12): > 100 µM (inactive)
- GI50 (UACC-62): > 100 µM (inactive)
- GI50 (ACHN): > 100 µM (inactive)
- GI50 (CCRF-CEM): 32.9 µM (inactive)
- GI50 (Hs-578T): > 100 µM (inactive)
- GI50 (RXF 393): > 100 µM (inactive)
- GI50 (SF-539): > 100 µM (inactive)
- GI50 (SK-MEL-28): > 100 µM (inactive)
- GI50 (BT-549): > 100 µM (inactive)
- GI50 (RPMI-8226): > 100 µM (inactive)
- GI50 (LOX IMVI): > 100 µM (inactive)
- GI50 (PC-3): > 100 µM (inactive)
- GI50 (SK-OV-3): > 100 µM (inactive)
- GI50 (MOLT-4): > 100 µM (inactive)
- GI50 (HL-60): 31.8 µM (inactive)
- GI50 (SNB-75): 1.25 µM (inactive)
- GI50 (CAKI-1): > 100 µM (inactive)
- GI50 (NCI-H460): > 100 µM (inactive)
- GI50 (SN12C): > 100 µM (inactive)
- GI50 (SF-295): > 100 µM (inactive)
- GI50 (SW-620): > 100 µM (inactive)
- GI50 (UACC-257): > 100 µM (inactive)
- GI50 (OVCAR-4): > 100 µM (inactive)
- GI50 (SK-MEL-5): > 100 µM (inactive)
- GI50 (SR): 71.3 µM (inactive)
- GI50 (UO-31): > 100 µM (inactive)
- GI50 (DU-145): > 100 µM (inactive)

SMILES: COc1cc(Oc2c(C)c(Cl)c(OC)c(Cl)c2OC)c2c(c1Cl)COC2=O
- GI50 (OVCAR-5): 47.1 µM (inactive)
- GI50 (T47D): 9.73 µM (inactive)
- GI50 (786-0): 17.1 µM (inactive)
- GI50 (MDA-N): 14.3 µM (inactive)
- GI50 (TK-10): 71.3 µM (inactive)
- GI50 (EKVX): 22.3 µM (inactive)
- GI50 (SNB-19): 42.2 µM (inactive)
- GI50 (HCT-15): 13.9 µM
- GI50 (U-251): 29.8 µM (inactive)
- GI50 (HT-29): 9.23 µM (inactive)
- GI50 (HOP-92): 54 µM (inactive)
- GI50 (IGROV-1): 17.6 µM (inactive)
- GI50 (HCT-116): 6.34 µM (inactive)
- GI50 (HCC 2998): 26.6 µM (inactive)
- GI50 (A549): 34.4 µM (inactive)
- GI50 (OVCAR-8): 17.6 µM (inactive)
- GI50 (SF-268): 21.8 µM (inactive)
- GI50 (NCI-H226): 27.9 µM (inactive)
- GI50 (NCI-H522): 11.5 µM (inactive)
- GI50 (MDA-MB-435): 31.3 µM (inactive)
- GI50 (MCF7): 14.4 µM (inactive)
- GI50 (K562): 2.32 µM (inactive)
- GI50 (M14): 27.7 µM (inactive)
- GI50 (MDA-MB-231): 24.2 µM (inactive)
- GI50 (COLO 205): 20.9 µM (inactive)
- GI50 (A498): 49.7 µM (inactive)
- GI50 (KM12): 20.9 µM (inactive)
- GI50 (UACC-62): 33.7 µM (inactive)
- GI50 (ACHN): 12.9 µM (inactive)
- GI50 (CCRF-CEM): 45.1 µM (inactive)
- GI50 (Hs-578T): 54.7 µM (inactive)
- GI50 (RXF 393): 35.6 µM (inactive)
- GI50 (SF-539): 31.5 µM (inactive)
- GI50 (SK-MEL-28): 62.2 µM (inactive)
- GI50 (BT-549): 43.6 µM (inactive)
- GI50 (RPMI-8226): 3.52 µM (inactive)
- GI50 (LOX IMVI): 17 µM (inactive)
- GI50 (SK-OV-3): 41.5 µM (inactive)
- GI50 (MOLT-4): 10 µM (inactive)
- GI50 (HL-60): 7.78 µM (inactive)
- GI50 (SNB-75): 41.9 µM (inactive)
- GI50 (CAKI-1): 10.4 µM (inactive)
- GI50 (NCI-H460): 10.7 µM (inactive)
- GI50 (SN12C): 17.4 µM (inactive)
- GI50 (SF-295): 15.6 µM (inactive)
- GI50 (SW-620): 52 µM (inactive)
- GI50 (UACC-257): 31.9 µM (inactive)
- GI50 (NCI/ADR-RES): 17.1 µM (inactive)
- GI50 (Malme-3M): 15.2 µM (inactive)
- GI50 (OVCAR-4): 10.8 µM (inactive)
- GI50 (SK-MEL-5): 12.2 µM (inactive)
- GI50 (SR): 3.85 µM (inactive)
- GI50 (UO-31): 10.8 µM (inactive)
- GI50 (NCI-H23): 18.6 µM (inactive)
- GI50 (DU-145): 52.6 µM (inactive)

SMILES: CCC1(C)C=Cc2c(cc(O)c3c(=O)c4ccccc4n(C)c23)O1 (centres undefined)
- GI50 (OVCAR-5): > 10 µM (inactive)
- GI50 (T47D): > 10 µM (inactive)
- GI50 (786-0): > 10 µM (inactive)
- GI50 (MDA-N): > 10 µM (inactive)
- GI50 (TK-10): > 10 µM (inactive)
- GI50 (EKVX): > 10 µM (inactive)
- GI50 (SNB-19): > 10 µM (inactive)
- GI50 (HCT-15): > 10 µM
- GI50 (U-251): > 10 µM (inactive)
- GI50 (HT-29): > 10 µM (inactive)
- GI50 (HOP-92): > 10 µM (inactive)
- GI50 (IGROV-1): > 10 µM (inactive)
- GI50 (HCT-116): > 10 µM (inactive)
- GI50 (HCC 2998): > 10 µM (inactive)
- GI50 (A549): > 10 µM (inactive)
- GI50 (OVCAR-8): > 10 µM (inactive)
- GI50 (SF-268): > 10 µM (inactive)
- GI50 (NCI-H226): > 10 µM (inactive)
- GI50 (NCI-H522): > 10 µM (inactive)
- GI50 (MDA-MB-435): > 10 µM (inactive)
- GI50 (MCF7): > 10 µM (inactive)
- GI50 (SK-MEL-2): > 10 µM (inactive)
- GI50 (K562): > 10 µM (inactive)
- GI50 (M14): > 10 µM (inactive)
- GI50 (MDA-MB-231): > 10 µM (inactive)
- GI50 (COLO 205): > 10 µM (inactive)
- GI50 (HOP-62): > 10 µM (inactive)
- GI50 (A498): > 10 µM (inactive)
- GI50 (KM12): > 10 µM (inactive)
- GI50 (UACC-62): > 10 µM (inactive)
- GI50 (ACHN): > 10 µM (inactive)
- GI50 (CCRF-CEM): > 10 µM (inactive)
- GI50 (Hs-578T): > 10 µM (inactive)
- GI50 (RXF 393): > 10 µM (inactive)
- GI50 (SF-539): > 10 µM (inactive)
- GI50 (SK-MEL-28): > 10 µM (inactive)
- GI50 (BT-549): > 10 µM (inactive)
- GI50 (OVCAR-3): > 10 µM (inactive)
- GI50 (RPMI-8226): > 10 µM (inactive)
- GI50 (LOX IMVI): > 10 µM (inactive)
- GI50 (PC-3): > 10 µM (inactive)
- GI50 (SK-OV-3): > 10 µM (inactive)
- GI50 (MOLT-4): > 10 µM (inactive)
- GI50 (SNB-75): > 10 µM (inactive)
- GI50 (CAKI-1): 3.26 µM (inactive)
- GI50 (NCI-H460): > 10 µM (inactive)
- GI50 (SN12C): > 10 µM (inactive)
- GI50 (SF-295): > 10 µM (inactive)
- GI50 (SW-620): > 10 µM (inactive)
- GI50 (UACC-257): > 10 µM (inactive)
- GI50 (NCI/ADR-RES): > 10 µM (inactive)
- GI50 (Malme-3M): > 10 µM (inactive)
- GI50 (OVCAR-4): > 10 µM (inactive)
- GI50 (SK-MEL-5): > 10 µM (inactive)
- GI50 (UO-31): > 10 µM (inactive)
- GI50 (NCI-H23): > 10 µM (inactive)
- GI50 (DU-145): > 10 µM (inactive)
